What all share (type): cell-based
Assay [1] concerns KRAS-G12D mutant tumor cells AGS. Nature of the assay: Cell Proliferation Inhibition Assay (AGS), Cell-titer GLO, 96 h. The conditions noted are these: Homo sapiens, AGS, 96 h, read-out: AGS(G12D). The essentials: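 Inhibition % was derived from CellTiter-Glo luminescence (max minus measured, over max minus blank) and fitted to give IC50. Cells were KRAS-G12D AGS in low-attachment wells, treated for 96 h at 37°C.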

For the next assay, the target named is T1, KRAS G12D-cRAF (Homo sapiens, UniProt P01116, G12D).
T1 construct: expressed in transfected cells
Nature of the assay: Cellular KRAS G12D-cRAF Binding Inhibition Assay (NanoBRET, AD293 stable cells). The protocol:
(§1) NanoLuc® luciferase was used as the energy donor, and NanoBRET™ 618 fluorescent ligand labeled with the HaloTag® protein was used as the energy acceptor to detect protein-protein interactions in living cells. AD293 stable cells transfected with KRAS G12D-NanoLuc® luciferase and cRAF RBD-HaloTag® tag protein were seeded in 96-well plates at a cell density of 1×10^4 cells/well. Except for wells with medium added as a blank control, NanoBRET™ 618 fluorescent ligand was added to all other wells, and the plates were cultured overnight in a cell culture incubator. […] The luminescence data were calculated and converted into inhibition percent. The inhibition percent of KRAS G12D-cRAF binding was calculated according to the following formula: Inhibition Percent = (MaxValue−MeasuredValue)/(MaxValue−Blank) × 100% [formula] […] Curve fitting was performed using GraphPad Prism software to obtain IC50 values, see Table 1.
(In general: Bioluminescence resonance energy transfer reports proximity on the nanometre scale.)

In a further assay the target is T2, KRAS G12V-cRAF (Homo sapiens, UniProt P01116, G12V).
T2 construct: expressed in transfected cells
Nature of the assay: Cellular KRAS G12V-cRAF Binding Inhibition Assay (NanoBRET, AD293 stable cells). The protocol: as §1, with “AD293 stable cells transfected with KRAS G12D-NanoLuc® luciferase and cRAF RBD-HaloTag® tag protein were seeded in 96-well plates at a cell density of 1×10^4 cells/well.” left out, “G12V-cRAF” for “G12D-cRAF”

Assay [2] has as its system KRAS-G12V mutant tumor cells SW620. Nature of the assay: Cell Proliferation Inhibition Assay (SW620), Cell-titer GLO, 96 h. The conditions noted are these: Homo sapiens, SW-620, 96 h, read-out: SW620(G12V). The essentials:
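Readout: Cell-titer GLO luminescence after 96 h at 37°C, converted to percent inhibition against 0.5% DMSO and blank controls, with IC50 from curve fit. Low-attachment SW620 cultures (1×10^3 cells/well) were dosed at 10000–0.03 nM final.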

The mark [3] stands for this setting: AGS cells, 96 h incubation, Cell-titer GLO.
Where [4] appears, read: 3 h incubation, read-out: NanoBRET KRAS G12D.
The mark [5] stands for this setting: 3 h incubation, read-out: NanoBRET KRAS G12V.
[6] abbreviates: SW620 cells, 96 h incubation, Cell-titer GLO.

The structures appear in SMILES notation. pIC50: −log10 of the molar value. Like-named read-outs stand apart in the source and are kept apart here.

T2 sequence (P01116 1-188 isoform P01116-2 G12V): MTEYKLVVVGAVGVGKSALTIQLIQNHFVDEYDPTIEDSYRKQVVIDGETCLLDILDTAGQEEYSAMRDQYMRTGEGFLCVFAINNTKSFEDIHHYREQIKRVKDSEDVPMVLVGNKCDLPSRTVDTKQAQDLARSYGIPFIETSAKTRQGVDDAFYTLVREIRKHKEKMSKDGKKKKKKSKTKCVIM
T1 sequence (P01116 1-188 isoform P01116-2 G12D): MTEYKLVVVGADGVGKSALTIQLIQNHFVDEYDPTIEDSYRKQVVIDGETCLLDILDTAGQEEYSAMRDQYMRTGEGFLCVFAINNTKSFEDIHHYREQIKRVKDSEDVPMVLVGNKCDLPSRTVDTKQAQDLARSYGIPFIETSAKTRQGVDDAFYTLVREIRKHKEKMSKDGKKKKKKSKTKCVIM

Consider `CC1OCCCn2c(c3c4cc(ccc42)-c2csc(n2)CC(NC(=O)C2CC2C(F)F)C(=O)N2CCCC(N2)C(=O)OCC(C)(C)C3)-c2cc(N(C)CCN(C)C)cnc21` [Example 87, (1S,2S)-2-(difluoromethyl)-N-((1^5S,6^3S,4S,Z)-1^2-((2-(dimethylamino)ethyl)(methyl)amino)-1^5,1 0,10-trimethyl-5,7-dioxo-1^8,1^9,6^1,6^2,6^3,6^4,6^5,6^6-octahydro-1^5H,1^7H-8-oxa-l(13,15)-pyrido[3',2':7 ,8][1,5]oxazonino[5,6-a]indola-2(4,2)-thiazola-6(1,3)-pyridazinacycloundecaphane-4-yl)cyclopr opane-1-carboxamide], for which the pIC50 was 8.08 in assay [1] (setting [3]), 7.41 on KRAS G12D-cRAF (setting [4]), 6.74 on KRAS G12V-cRAF (setting [5]) and 8.56 in assay [2] (setting [6]).
Taken in the same sequence, the figures for `[2H]C([2H])([2H])N1CCN(c2cnc3c(c2)-c2c4c5cc(ccc5n2CCCOC3C)-c2csc(n2)CC(NC(=O)C2CC2C(F)F)C(=O)N2CCCC(N2)C(=O)OCC(C)(C)C4)CC1` [Example 91, (1S,2S)-2-(difluoromethyl)-N-((1^5S,6^3S,4S,Z)-1^5,10,10-trimethyl-1^2-(4-(methyl-d3)piperazin-1-yl)-5,7-dioxo-1^8,1^9,6^1,6^2,6^3,6^4,6^5,6^6-octahydro-1^5H,1^7H-8-oxa-1(13,15)-pyrido[3',2':7,8][1,5]oxazonino[5,6-a]indola-2(4,2)-thiazola-6(1,3)-pyridazinacycloundecaphane-4-yl)cyclopropane-1-carb oxamide] were 8.82, 8.57, 7.99 and 9.68.
On the same counts, the results for `CC1OCCCn2c(c3c4cc(ccc42)-c2csc(n2)CC(NC(=O)C2CC2C(F)F)C(=O)N2CCCC(N2)C(=O)OCC(C)(C)C3)-c2cc(N3CC(N(C)C)C3)cnc21` [Example 94, (1S,2S)-2-(difluoromethyl)-N-((1^5S,6^3S,4S,Z)-1^2-(3-(dimethylamino)azetidin-1-yl)-1^5,10,10-trimethyl-5,7-dioxo-1^8,1^9,6^1,6^2,6^3,6^4,6^5,6^6-octahydro-1^5H,1^7H-8-oxa-1(13,15)-pyrido[3',2':7,8][1,5]oxazonino[5,6-a]indola-2(4,2)-thiazola-6(1,3)-pyridazinacycloundecaphane-4-yl)cyclopropane-1-carboxamide] are 8.57, 8.18, 7.64 and 9.47.
On the same counts, the results for `CC1OCCCn2c(c3c4cc(ccc42)-c2csc(n2)CC(NC(=O)C2CC2C(F)F)C(=O)N2CCCC(N2)C(=O)OCC(C)(C)C3)-c2cc(-c3ccc(N4CCN(C)CC4)cc3)cnc21` [Example 96, (1S,2S)-2-(difluoromethyl)-N-((1^5S,6^3S,4S,Z)-1^5,10,10-trimethyl-1^2-(4-(4-methylpiperazin-1-yl)phenyl)-5,7-dioxo-1^8,1^9,6^1,6^2,6^3,6^4,6^5,6^6-octahydro-15H,17H-8-oxa-1(13,15)-pyrido[3',2':7,8][1, 5]oxazonino[5,6-a]indola-2(4,2)-thiazola-6(1,3)-pyridazinacycloundecaphane-4-yl)cyclopropane-1-carboxamide] are 8.62, 8.22, 7.70 and 8.97.
Take `CC1OCCCn2c(c3c4cc(ccc42)-c2csc(n2)CC(NC(=O)C2CC2C(F)F)C(=O)N2CCCC(N2)C(=O)OCC(C)(C)C3)-c2cc(OC3CCN(C)CC3)cnc21` [Example 97, (1S,2S)-2-(difluoromethyl)-N-((1^5S,6^3S,4S,Z)-1^5,10,10-trimethyl-1^2-((1-methylpiperidin-4-yl)oxy)-5,7-dioxo-1^8,1^9,6^1,6^2,6^3,6^4,6^5,6^6-octahydro-1^5H,1^7H-8-oxa-1(13,15)-pyrido[3',2':7,8][1,5]oxazonino[5,6-a]indola-2(4,2)-thiazola-6(1,3)-pyridazinacycloundecaphane-4-yl)cyclopropane-1-carb oxamide]: the pIC50 in assay [1] (setting [3]) was 8.57; at KRAS G12D-cRAF (setting [4]) it was 7.92; on KRAS G12V-cRAF (setting [5]) it was 7.21; in assay [2] (setting [6]), 9.38.
On the same counts, the results for `CC1OCCCn2c(c3c4cc(ccc42)-c2csc(n2)CC(NC(=O)C24CC(C)(C2)C4)C(=O)N2CCCC(N2)C(=O)OCC(C)(C)C3)-c2cc(N3CCN(CC(F)F)CC3)cnc21` [Example 98, N-((1^5S,6^3S,4S,Z)-1^2-(4-(2,2-difluoroethyl)piperazin-1-yl)-1^5,10,10-trimethyl-5,7-dioxo-1^8,1^9,6^1, 6^2,6^3,6^4,6^5,6^6-octahydro-1^5H,1^7H-8-oxa-1(13,15)-pyrido[3',2':7,8][1,5]oxazonino[5,6-a]indola-2(4,2)-thiazola-6(1,3)-pyridazinacycloundecaphane-4-yl)-3-methylbicyclo[1.1.1]pentane-1-carbox amide] are 7.88, 7.83, 7.21 and 8.41.
As to `CC1OCCCn2c(c3c4cc(ccc42)-c2csc(n2)CC(NC(=O)C2CC2C(F)F)C(=O)N2CCCC(N2)C(=O)OCC(C)(C)C3)-c2cc(N3CC(N4CCN(C)CC4)C3)cnc21` [Example 99, (1S,2S)-2-(difluoromethyl)-N-((1^5S,6^3S,4S,Z)-1^5,10,10-trimethyl-1^2-(3-(4-methylpiperazin-1-yl)azetidin-1-yl)-5,7-dioxo-1^8,1^9,6^1,6^2,6^3,6^4,6^5,6^6-octahydro-1^5H,1^7H-8-oxa-1(13,15)-pyrido[3',2':7, 8][1,5]oxazonino[5,6-a]indola-2(4,2)-thiazola-6(1,3)-pyridazinacycloundecaphane-4-yl)cyclopro pane-1-carboxamide], the pIC50 was 9.13 in assay [1], 8.37 on KRAS G12D-cRAF (setting [4]), 7.88 at KRAS G12V-cRAF (setting [5]) and 9.85 in assay [2].
Consider `C[C@@H]1OCCCn2c(c3c4cc(ccc42)-c2csc(n2)C[C@H](NC(=O)[C@H]2C[C@@H]2C(F)F)C(=O)N2CCC[C@H](N2)C(=O)OCC(C)(C)C3)-c2cc(N3CC4(CCN(C)CC4)C3)cnc21` [Example 100, (1S,2S)-2-(difluoromethyl)-N-((1^5S,6^3S,4S,Z)-1^5,10,10-trimethyl-1^2-(7-methyl-2,7-diazaspiro[3. 5]nonan-2-yl)-5,7-dioxo-1^8,1^9,6^1,6^2,6^3,6^4,6^5,6^6-octahydro-1^5H,1^7H-8-oxa-1(13,15)-pyrido[3',2':7, 8][1,5]oxazonino[5,6-a]indola-2(4,2)-thiazola-6(1,3)-pyridazinacycloundecaphane-4-yl)cyclopro pane-1-carboxamide], for which the pIC50 was 9.36 in assay [1]; 8.34 on KRAS G12D-cRAF (read-out: NanoBRET KRAS G12D, 3 h incubation); 7.66 at KRAS G12V-cRAF (read-out: NanoBRET KRAS G12V, 3 h incubation); 10.00 in assay [2].
Consider `COCCN1CCN(c2cnc3c(c2)-c2c4c5cc(ccc5n2CCCOC3C)-c2csc(n2)CC(NC(=O)C2CC2C(F)F)C(=O)N2CCCC(N2)C(=O)OCC(C)(C)C4)CC1` [Example 101, (1S,2S)-2-(difluoromethyl)-N-((1^5S,6^3S,4S,Z)-1^2-(4-(2-methoxyethyl)piperazin-1-yl)-1^5,10,10-trimethyl-5,7-dioxo-1^8,1^9,6^1,6^2,6^3,6^4,6^5,6^6-octahydro-1^5H,1^7H-8-oxa-1(13,15)-pyrido[3',2':7,8][1,5]oxazonino[5,6-a]indola-2(4,2)-thiazola-6(1,3)-pyridazinacycloundecaphane-4-yl)cyclopropane-1-carboxamide], for which the pIC50 was 8.85 in assay [1] (setting [3]), 8.56 on KRAS G12D-cRAF (setting [4]), 7.92 on KRAS G12V-cRAF (setting [5]) and 9.59 in assay [2] (setting [6]).

The values are drawn from patent EP4800018A1, “PAN-KRAS INHIBITOR AND USE THEREOF IN MEDICINES” (Betta Pharmaceuticals Co., Ltd., priority 2023, dated 2025).
